Reference: PubChem BioAssay (NCI)
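Cells were grown in 96-well plates and exposed to each compound for 48 hours at five concentrations; endpoints were interpolated linearly between bracketing concentrations, or set to the highest concentration if not reached. At the TGI there is no net growth.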

How the values were obtained:
Assay in all cases: DTP human tumour cell line panel, 48 h
XF 498 CNS = test system: XF 498 CNS
HOP-62 NSCLC = test system: HOP-62 NSCLC
RXF 393 renal = test system: RXF 393 renal
LOX IMVI melanoma = test system: LOX IMVI melanoma
NCI-H226 lung = test system: NCI-H226 lung
SF-295 CNS = test system: SF-295 CNS
OVCAR-8 ovarian = test system: OVCAR-8 ovarian
SNB-19 CNS = test system: SNB-19 CNS
M19-MEL melanoma = test system: M19-MEL melanoma
MOLT-4 leukemia = test system: MOLT-4 leukemia
EKVX NSCLC = test system: EKVX NSCLC
M14 melanoma = test system: M14 melanoma
SF-539 CNS = test system: SF-539 CNS
A549 NSCLC = test system: A549 NSCLC
HOP-18 NSCLC = test system: HOP-18 NSCLC
RXF-631 renal = test system: RXF-631 renal
OVCAR-4 ovarian = test system: OVCAR-4 ovarian
NCI-H522 lung = test system: NCI-H522 lung
SNB-75 CNS = test system: SNB-75 CNS
HL-60(TB) leukemia = test system: HL-60(TB) leukemia
SK-MEL-28 melanoma = test system: SK-MEL-28 melanoma
DMS 273 small cell lung = test system: DMS 273 small cell lung
NCI-H460 lung = test system: NCI-H460 lung
LXFL 529 NSCLC = test system: LXFL 529 NSCLC
OVCAR-3 ovarian = test system: OVCAR-3 ovarian
SNB-78 CNS = test system: SNB-78 CNS
786-0 renal = test system: 786-0 renal
UACC-257 melanoma = test system: UACC-257 melanoma
CCRF-CEM leukemia = test system: CCRF-CEM leukemia
COLO 205 colon = test system: COLO 205 colon
NCI-H23 lung = test system: NCI-H23 lung
HT29 colon = test system: HT29 colon
DMS 114 small cell lung = test system: DMS 114 small cell lung
SK-MEL-5 melanoma = test system: SK-MEL-5 melanoma
CAKI-1 renal = test system: CAKI-1 renal
OVCAR-5 ovarian = test system: OVCAR-5 ovarian
HCC-2998 colon = test system: HCC-2998 colon
SK-OV-3 ovarian = test system: SK-OV-3 ovarian
ACHN renal = test system: ACHN renal
A498 renal = test system: A498 renal
K-562 leukemia = test system: K-562 leukemia
KM12 colon = test system: KM12 colon
TK-10 renal = test system: TK-10 renal
SW-620 colon = test system: SW-620 colon
DLD-1 colon = test system: DLD-1 colon
HCT-116 colon = test system: HCT-116 colon
KM20L2 colon = test system: KM20L2 colon
U251 CNS = test system: U251 CNS
SF-268 CNS = test system: SF-268 CNS
UACC-62 melanoma = test system: UACC-62 melanoma
IGROV1 ovarian = test system: IGROV1 ovarian
MALME-3M melanoma = test system: MALME-3M melanoma
SK-MEL-2 melanoma = test system: SK-MEL-2 melanoma
SN12C renal = test system: SN12C renal
HCT-15 colon = test system: HCT-15 colon
HOP-92 NSCLC = test system: HOP-92 NSCLC
SR leukemia = test system: SR leukemia
RPMI-8226 leukemia = test system: RPMI-8226 leukemia
MDA-MB-435 = test system: MDA-MB-435
NCI/ADR-RES ovarian = test system: NCI/ADR-RES ovarian
PC-3 prostate = test system: PC-3 prostate
MDA-MB-231 breast = test system: MDA-MB-231 breast
DU-145 prostate = test system: DU-145 prostate
UO-31 renal = test system: UO-31 renal
T-47D breast = test system: T-47D breast
MCF7 breast = test system: MCF7 breast
HS 578T breast = test system: HS 578T breast
MDA-N = test system: MDA-N
BT-549 breast = test system: BT-549 breast

CCOC(=O)c1nc2ccc([N+](=O)[O-])cc2c2c1CCO2
TGI (XF 498 CNS): > 100 µM
TGI (HOP-62 NSCLC): > 100 µM
TGI (RXF 393 renal): > 100 µM
TGI (LOX IMVI melanoma): > 100 µM
TGI (NCI-H226 lung): > 100 µM
TGI (SF-295 CNS): > 100 µM
TGI (OVCAR-8 ovarian): > 100 µM
TGI (SNB-19 CNS): > 100 µM
TGI (M19-MEL melanoma): > 100 µM
TGI (MOLT-4 leukemia): > 100 µM
TGI (EKVX NSCLC): > 100 µM
TGI (M14 melanoma): > 100 µM
TGI (SF-539 CNS): > 100 µM
TGI (A549 NSCLC): > 100 µM
TGI (HOP-18 NSCLC): > 100 µM
TGI (RXF-631 renal): > 100 µM
TGI (OVCAR-4 ovarian): > 100 µM
TGI (NCI-H522 lung): > 100 µM
TGI (SNB-75 CNS): > 100 µM
TGI (HL-60(TB) leukemia): > 100 µM
TGI (SK-MEL-28 melanoma): > 100 µM
TGI (DMS 273 small cell lung): > 100 µM
TGI (NCI-H460 lung): > 100 µM
TGI (LXFL 529 NSCLC): > 100 µM
TGI (OVCAR-3 ovarian): > 100 µM
TGI (SNB-78 CNS): > 100 µM
TGI (786-0 renal): > 100 µM
TGI (UACC-257 melanoma): > 100 µM
TGI (CCRF-CEM leukemia): > 100 µM
TGI (COLO 205 colon): > 100 µM
TGI (NCI-H23 lung): > 100 µM
TGI (HT29 colon): > 100 µM
TGI (DMS 114 small cell lung): > 100 µM
TGI (SK-MEL-5 melanoma): > 100 µM
TGI (CAKI-1 renal): > 100 µM
TGI (OVCAR-5 ovarian): > 100 µM
TGI (HCC-2998 colon): > 100 µM
TGI (SK-OV-3 ovarian): > 100 µM
TGI (ACHN renal): > 100 µM
TGI (A498 renal): > 100 µM
TGI (K-562 leukemia): > 100 µM
TGI (KM12 colon): > 100 µM
TGI (TK-10 renal): > 100 µM
TGI (SW-620 colon): > 100 µM
TGI (DLD-1 colon): > 100 µM
TGI (HCT-116 colon): > 100 µM
TGI (KM20L2 colon): > 100 µM
TGI (U251 CNS): > 100 µM
TGI (SF-268 CNS): > 100 µM
TGI (UACC-62 melanoma): > 100 µM
TGI (IGROV1 ovarian): > 100 µM
TGI (MALME-3M melanoma): > 100 µM
TGI (SK-MEL-2 melanoma): > 100 µM
TGI (SN12C renal): > 100 µM
TGI (HCT-15 colon): > 100 µM

NC(=O)CCCC(NCc1c2ccccc2nc2ccccc12)C(=O)O (stereo not given)
TGI (XF 498 CNS): 61.8 µM
TGI (HOP-62 NSCLC): > 100 µM
TGI (RXF 393 renal): > 100 µM
TGI (LOX IMVI melanoma): > 100 µM
TGI (HOP-92 NSCLC): 85.7 µM
TGI (NCI-H226 lung): > 100 µM
TGI (SF-295 CNS): > 100 µM
TGI (OVCAR-8 ovarian): > 100 µM
TGI (M19-MEL melanoma): > 100 µM
TGI (MOLT-4 leukemia): 66.2 µM
TGI (EKVX NSCLC): > 100 µM
TGI (M14 melanoma): > 100 µM
TGI (SF-539 CNS): > 100 µM
TGI (A549 NSCLC): > 100 µM
TGI (OVCAR-4 ovarian): 41.7 µM
TGI (NCI-H522 lung): 67.7 µM
TGI (SNB-75 CNS): > 100 µM
TGI (HL-60(TB) leukemia): 62.2 µM
TGI (SK-MEL-28 melanoma): > 100 µM
TGI (DMS 273 small cell lung): 86.7 µM
TGI (NCI-H460 lung): > 100 µM
TGI (LXFL 529 NSCLC): > 100 µM
TGI (OVCAR-3 ovarian): > 100 µM
TGI (786-0 renal): > 100 µM
TGI (UACC-257 melanoma): > 100 µM
TGI (CCRF-CEM leukemia): 71.6 µM
TGI (COLO 205 colon): > 100 µM
TGI (NCI-H23 lung): > 100 µM
TGI (SR leukemia): > 100 µM
TGI (HT29 colon): > 100 µM
TGI (DMS 114 small cell lung): > 100 µM
TGI (SK-MEL-5 melanoma): > 100 µM
TGI (CAKI-1 renal): 96.2 µM
TGI (OVCAR-5 ovarian): > 100 µM
TGI (HCC-2998 colon): > 100 µM
TGI (SK-OV-3 ovarian): > 100 µM
TGI (ACHN renal): > 100 µM
TGI (K-562 leukemia): > 100 µM
TGI (KM12 colon): > 100 µM
TGI (TK-10 renal): > 100 µM
TGI (SW-620 colon): > 100 µM
TGI (DLD-1 colon): > 100 µM
TGI (KM20L2 colon): > 100 µM
TGI (U251 CNS): > 100 µM
TGI (SF-268 CNS): > 100 µM
TGI (IGROV1 ovarian): > 100 µM
TGI (MALME-3M melanoma): > 100 µM
TGI (SK-MEL-2 melanoma): > 100 µM
TGI (SN12C renal): > 100 µM
TGI (RPMI-8226 leukemia): 93.6 µM
TGI (HCT-15 colon): > 100 µM

COc1nc(N)c(NC2OC(CO)C(O)C2O)c(=O)[nH]1 (stereo not given)
TGI (HOP-62 NSCLC): > 100 µM
TGI (RXF 393 renal): > 100 µM
TGI (LOX IMVI melanoma): > 100 µM
TGI (MDA-MB-435): > 100 µM
TGI (NCI/ADR-RES ovarian): > 100 µM
TGI (HOP-92 NSCLC): > 100 µM
TGI (NCI-H226 lung): > 100 µM
TGI (SF-295 CNS): > 100 µM
TGI (OVCAR-8 ovarian): > 100 µM
TGI (SNB-19 CNS): > 100 µM
TGI (MOLT-4 leukemia): > 100 µM
TGI (EKVX NSCLC): > 100 µM
TGI (M14 melanoma): > 100 µM
TGI (SF-539 CNS): > 100 µM
TGI (PC-3 prostate): > 100 µM
TGI (A549 NSCLC): > 100 µM
TGI (MDA-MB-231 breast): > 100 µM
TGI (OVCAR-4 ovarian): > 100 µM
TGI (NCI-H522 lung): > 100 µM
TGI (DU-145 prostate): > 100 µM
TGI (SNB-75 CNS): > 100 µM
TGI (UO-31 renal): > 100 µM
TGI (HL-60(TB) leukemia): > 100 µM
TGI (SK-MEL-28 melanoma): > 100 µM
TGI (NCI-H460 lung): > 100 µM
TGI (OVCAR-3 ovarian): > 100 µM
TGI (786-0 renal): > 100 µM
TGI (UACC-257 melanoma): > 100 µM
TGI (CCRF-CEM leukemia): > 100 µM
TGI (COLO 205 colon): > 100 µM
TGI (NCI-H23 lung): > 100 µM
TGI (T-47D breast): > 100 µM
TGI (SR leukemia): > 100 µM
TGI (MCF7 breast): > 100 µM
TGI (HT29 colon): > 100 µM
TGI (SK-MEL-5 melanoma): > 100 µM
TGI (CAKI-1 renal): > 100 µM
TGI (HS 578T breast): > 100 µM
TGI (OVCAR-5 ovarian): > 100 µM
TGI (HCC-2998 colon): > 100 µM
TGI (SK-OV-3 ovarian): > 100 µM
TGI (ACHN renal): > 100 µM
TGI (A498 renal): > 100 µM
TGI (K-562 leukemia): > 100 µM
TGI (KM12 colon): > 100 µM
TGI (TK-10 renal): > 100 µM
TGI (SW-620 colon): > 100 µM
TGI (HCT-116 colon): > 100 µM
TGI (MDA-N): > 100 µM
TGI (U251 CNS): > 100 µM
TGI (SF-268 CNS): > 100 µM
TGI (UACC-62 melanoma): > 100 µM
TGI (BT-549 breast): > 100 µM
TGI (IGROV1 ovarian): > 100 µM
TGI (MALME-3M melanoma): > 100 µM
TGI (SK-MEL-2 melanoma): > 100 µM
TGI (SN12C renal): > 100 µM
TGI (RPMI-8226 leukemia): > 100 µM
TGI (HCT-15 colon): > 100 µM
